Here are results for 20 compounds from patent US7598258B2, “Quinoline derivatives and quinazoline derivatives inhibiting autophosphorylation of macrophage colony stimulating factor receptor” (Kirin Beer Kabushiki Kaisha, priority 2002, dated 2009).

A value given as a limit tells only on which side of the number the result lay.

For this assay, the target named is T1, Human KDR (Homo sapiens, UniProt P35968).
T1 construct: expressed in transfected cells; host or cells: NIH3T3 cells (mouse fibroblasts)
T1 sequence (P35968 20-1356): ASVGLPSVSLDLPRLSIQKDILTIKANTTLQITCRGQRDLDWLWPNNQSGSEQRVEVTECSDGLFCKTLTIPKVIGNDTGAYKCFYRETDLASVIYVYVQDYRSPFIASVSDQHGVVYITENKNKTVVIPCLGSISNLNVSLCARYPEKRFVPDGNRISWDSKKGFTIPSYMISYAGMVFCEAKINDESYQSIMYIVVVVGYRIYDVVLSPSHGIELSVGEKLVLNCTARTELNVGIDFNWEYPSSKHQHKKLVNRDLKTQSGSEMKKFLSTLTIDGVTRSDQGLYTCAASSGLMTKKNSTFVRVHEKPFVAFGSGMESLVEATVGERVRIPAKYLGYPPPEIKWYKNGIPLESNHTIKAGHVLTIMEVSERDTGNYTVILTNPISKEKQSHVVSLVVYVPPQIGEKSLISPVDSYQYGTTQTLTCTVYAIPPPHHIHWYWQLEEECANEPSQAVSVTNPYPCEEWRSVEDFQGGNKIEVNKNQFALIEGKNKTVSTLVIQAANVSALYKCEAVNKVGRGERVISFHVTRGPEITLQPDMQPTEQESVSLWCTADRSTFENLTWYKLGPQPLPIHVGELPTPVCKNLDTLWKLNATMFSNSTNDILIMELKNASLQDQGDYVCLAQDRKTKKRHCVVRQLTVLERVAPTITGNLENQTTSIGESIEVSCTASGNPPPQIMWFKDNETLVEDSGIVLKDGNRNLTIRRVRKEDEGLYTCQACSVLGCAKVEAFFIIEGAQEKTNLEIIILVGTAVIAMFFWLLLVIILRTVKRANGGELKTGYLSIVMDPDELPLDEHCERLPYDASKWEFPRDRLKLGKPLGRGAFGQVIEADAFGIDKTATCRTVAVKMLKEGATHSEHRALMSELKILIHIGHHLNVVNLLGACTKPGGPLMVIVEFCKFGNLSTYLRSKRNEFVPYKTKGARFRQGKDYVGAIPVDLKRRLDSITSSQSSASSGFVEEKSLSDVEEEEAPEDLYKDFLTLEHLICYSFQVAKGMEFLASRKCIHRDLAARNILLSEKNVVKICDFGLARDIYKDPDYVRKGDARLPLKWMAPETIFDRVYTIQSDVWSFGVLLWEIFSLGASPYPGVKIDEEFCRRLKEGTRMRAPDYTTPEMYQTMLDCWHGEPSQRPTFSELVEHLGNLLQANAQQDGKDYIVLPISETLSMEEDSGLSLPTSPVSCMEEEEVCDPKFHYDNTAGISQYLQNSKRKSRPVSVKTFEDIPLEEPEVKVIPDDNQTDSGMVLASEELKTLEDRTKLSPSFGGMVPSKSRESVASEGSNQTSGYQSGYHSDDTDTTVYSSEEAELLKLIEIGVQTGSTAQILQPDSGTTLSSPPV
Briefly: Inhibition of KDR phosphorylation in human KDR-transfected NIH3T3 cells (ELISA). The format is cell-based. The conditions noted are these: for Selection ratio (KDR phosphorylation IC50 / c-fms phosphorylation IC50): class 0-3; for IC50: human KDR-transfected NIH3T3 cells, VEGF 100 ng/ml, ELISA, read-out: KDR phosphorylation 50% inhibitory concentration (IC50). The protocol:
Human KDR-transfected NIH3T3 cells (Sawano A et al., Cell Growth & Differentiation, 7, 213-221 (1996)) were cultured in a DMEM medium containing 10% fetal calf serum (purchased from GIBCO BRL) within a 5% carbon dioxide incubator until 50 to 70% confluent. The harvested cells were seeded into wells, containing the same medium, in a collagen type 1 coat 96-well flat-bottom plate in an amount of 1.5×10^4 per well, and cultured at 37° C. overnight. The medium was replaced with a 0.1% fetal calf serum-containing DMEM medium. The test compound dissolved in dimethyl sulfoxide was added to each well, and the cultivation was continued at 37° C. for additional one hr. A human recombinant vascular endothelial growth factor (hereinafter abbreviated to “VEGF”) was added to a final concentration of 100 ng/ml, followed by stimulation of cells at 37° C. for 2 min. The medium was removed, and the cells were washed with phosphate buffered saline (pH 7.4). A solubilization buffer (50 μl) (20 mM HEPES (pH 7.4), 150 mM NaCl, 0.2% Triton X-100, 10% glycerol, 5 mM sodium orthovanadylate, 5 mM disodium ethylenediaminetetraacetate, and 2 mM Na4P2O7) was then added thereto. The mixture was shaken at 4° C. for 2 hr to prepare a cell extract.
Separately, phosphate buffered saline (50 μl, pH 7.4) containing 5 μg/ml of anti-phospho-tyrosine antibody (PY20; purchased from Transduction Laboratories) was added to a microplate for ELISA (Maxisorp; purchased from NUNC), followed by standing at 4° C. overnight to be immobilized on the wells. After washing of the plate, 300 μl of a blocking solution was added, followed by standing at room temperature for 2 hr to perform blocking. After washing, the whole cell extract was transferred and was allowed to stand at 4° C. overnight. After washing, an anti-KDR antibody (purchased from Santa Cruz Biotechnology) was allowed to react at room temperature for one hr. Further, after washing, a peroxidase-labeled anti-rabbit Ig antibody (purchased from Amersham) was allowed to react at room temperature for one hr. After washing, a chromophoric substrate for peroxidase (purchased from Sumitomo Bakelite Co., Ltd.) was added thereto to initiate a reaction. After a suitable level of color development, a reaction termination solution was added to stop the reaction, and the absorbance at 450 nm was measured with a microplate reader. The KDR phosphorylation activity for each well was determined by presuming the absorbance without the addition of the test compound and with the addition of VEGF to be 100% KDR phosphorylation activity and the absorbance without the addition of the test compound and VEGF to be 0% KDR phosphorylation activity. The concentration of the test compound was varied on several levels, the KDR phosphorylation inhibitory rate was determined for each case, and the concentration of the test compound necessary for inhibiting 50% of KDR phosphorylation (IC50) was calculated.
A general note: In an ELISA, binding on a coated surface is turned into a signal by an enzyme label.

With `COc1cc2nccc(Oc3ccc(NC(=O)N[C@H](C)c4ccc(F)cc4)cc3OC)c2cc1OC` [Example 24, N-{4-[(6,7-Dimethoxy-4-quinolyl)oxy]-3-methoxyphenyl}-N′-[(1R)-1-(4-fluorophenyl)ethyl]urea], the “Selection ratio (KDR phosphorylation IC50 / c-fms phosphorylation IC50)” value was 0 (KDR phosphorylation 50% inhibitory concentration [μM]/c-fms phosphorylation 50% inhibitory concentration [μM] was less than 5) and the IC50 was 2.4 nM.

Take `COc1cc2nccc(Oc3cc(C)c(NC(=O)N[C@H](C)c4nccs4)cc3C)c2cc1OC` [Example 87, N-{4-[(6,7-Dimethoxy-4-quinolyl)oxy]-2,5-dimethylphenyl}-N′-[(1R)-1-(1,3-thiazol-2-yl)ethyl]urea]: the “Selection ratio (KDR phosphorylation IC50 / c-fms phosphorylation IC50)” value is listed as 2 (when the value was 10 or more) and the IC50 is 273 nM.

Turning to `COc1cc2nccc(Oc3ccc(NC(=O)N[C@H](C)c4cccc(Br)c4)c(C)c3)c2cc1OC` [Example 58, N-[(1R)-1-(3-Bromophenyl)ethyl]-N′-{4-[(6,7-dimethoxy-4-quinolyl)oxy]-2-methylphenyl}urea], the “Selection ratio (KDR phosphorylation IC50 / c-fms phosphorylation IC50)” value was 0 (KDR phosphorylation 50% inhibitory concentration [μM]/c-fms phosphorylation 50% inhibitory concentration [μM] was less than 5) and the IC50 was determined as 2.1 nM.

Regarding `COc1cc2nccc(Oc3ccc(NC(=O)N[C@@H](C)c4nccs4)cc3OC)c2cc1OC` [Example 81, N-{4-[(6,7-Dimethoxy-4-quinolyl)oxy]-3-methoxyphenyl}-N′-[(1S)-1-(1,3-thiazol-2-yl)ethyl]urea], the “Selection ratio (KDR phosphorylation IC50 / c-fms phosphorylation IC50)” value is 3 (when the value was 50 or more) and the IC50 worked out at 1050 nM.

As to `COc1cc2nccc(Oc3ccc(NC(=O)NC(C)c4ccc(F)cc4)c(Cl)c3)c2cc1OC` (stereo not shown) [Example 4, N-{2-Chloro-4-[(6,7-dimethoxy-4-quinolyl)oxy]phenyl}-N′-[1-(4-fluorophenyl)ethyl]urea], the “Selection ratio (KDR phosphorylation IC50 / c-fms phosphorylation IC50)” value was 0 (KDR phosphorylation 50% inhibitory concentration [μM]/c-fms phosphorylation 50% inhibitory concentration [μM] was less than 5) and the IC50 was found to be 1 nM.

For the compound `COc1cc2nccc(Oc3ccc(NC(=O)N[C@@H](C)c4ccc(F)cc4)c(C(F)(F)F)c3)c2cc1OC` [Example 20, N-[4-[(6,7-Dimethoxy-4-quinolyl)oxy]-2-(trifluoromethyl)phenyl]-N′-[(1S)-1-(4-fluorophenyl)ethyl]urea], the “Selection ratio (KDR phosphorylation IC50 / c-fms phosphorylation IC50)” value is listed as 2 (when the value was 10 or more) and the IC50 turned out to be 146 nM.

In the case of `COc1cc2nccc(Oc3ccc(NC(=O)N[C@H](C)c4nccs4)c(C(F)(F)F)c3)c2cc1OC` [Example 85, N-[4-[(6,7-Dimethoxy-4-quinolyl)oxy]-2-(trifluoromethyl)phenyl]-N′-[(1R)-1-(1,3-thiazol-2-yl)ethyl]urea], the “Selection ratio (KDR phosphorylation IC50 / c-fms phosphorylation IC50)” value was 0 (KDR phosphorylation 50% inhibitory concentration [μM]/c-fms phosphorylation 50% inhibitory concentration [μM] was less than 5) and the IC50 stood at 21.6 nM.

As to `COc1cc2nccc(Oc3ccc(NC(=O)N[C@H](C)c4nccs4)c(F)c3)c2cc1OC` [Example 72, N-{4-[(6,7-Dimethoxy-4-quinolyl)oxy]-2-fluorophenyl}-N′-[(1R)-1-(1,3-thiazol-2-yl)ethyl]urea], the “Selection ratio (KDR phosphorylation IC50 / c-fms phosphorylation IC50)” value is listed as 1 (when the value was 5 or more) and the IC50 came to 35.6 nM.

Take `COc1cc2nccc(Oc3ccc(NC(=O)N[C@@H](C)c4nccs4)cc3)c2cc1OC` [Example 78, N-{4-[(6,7-Dimethoxy-4-quinolyl)oxy]phenyl}-N′-[(S)-1-(1,3-thiazol-2-yl)ethyl]urea]: the “Selection ratio (KDR phosphorylation IC50 / c-fms phosphorylation IC50)” value is 2 (when the value was 10 or more) and the IC50 amounted to 53.9 nM.

On to `COc1cc2nccc(Oc3ccc(NC(=O)N[C@@H](C)c4ccc(F)cc4)cc3OC)c2cc1OC` [Example 23, N-{4-[(6,7-Dimethoxy-4-quinolyl)oxy]-3-methoxyphenyl}-N′-[(1S)-1-(4-fluorophenyl)ethyl]urea], for which the “Selection ratio (KDR phosphorylation IC50 / c-fms phosphorylation IC50)” value is 3 (when the value was 50 or more) and the IC50 was found to be 600 nM.

Take `COc1cc2nccc(Oc3ccc(NC(=O)N[C@H](C)c4cccc(Br)c4)cc3Cl)c2cc1OC` [Example 57, N-[(1R)-1-(3-Bromophenyl)ethyl]-N′-{3-chloro-4-[(6,7-dimethoxy-4-quinolyl)oxy]phenyl}urea]: the “Selection ratio (KDR phosphorylation IC50 / c-fms phosphorylation IC50)” value was 0 (KDR phosphorylation 50% inhibitory concentration [μM]/c-fms phosphorylation 50% inhibitory concentration [μM] was less than 5) and the IC50 is 3.6 nM.

For `COc1cc2nccc(Oc3ccc(NC(=O)NC(C)c4ncc(C)s4)cc3)c2cc1OC` (stereo not shown) [Example 100, N-{4-[(6,7-Dimethoxy-4-quinolyl)oxy]phenyl}-N′-[1-(5-methyl-1,3-thiazol-2-yl)ethyl]urea], the “Selection ratio (KDR phosphorylation IC50 / c-fms phosphorylation IC50)” value is 2 (when the value was 10 or more) and the IC50 was found to be 311 nM.

With `COc1cc2nccc(Oc3ccc(NC(=O)NC(C)c4nccs4)c(C(F)(F)F)c3)c2cc1OC` (stereo not shown) [Example 83, N-[4-[(6,7-Dimethoxy-4-quinolyl)oxy]-2-(trifluoromethyl)phenyl]-N′-[1-(1,3-thiazol-2-yl)ethyl]urea], the “Selection ratio (KDR phosphorylation IC50 / c-fms phosphorylation IC50)” value was 0 (KDR phosphorylation 50% inhibitory concentration [μM]/c-fms phosphorylation 50% inhibitory concentration [μM] was less than 5) and the IC50 is 7.9 nM.

Turning to `COc1cc2nccc(Oc3ccc(NC(=O)N[C@@H](C)c4ccc(F)cc4)c(C)c3C)c2cc1OC` [Example 26, N-{4-[(6,7-Dimethoxy-4-quinolyl)oxy]-2,3-dimethylphenyl}-N′-[(1S)-1-(4-fluorophenyl)ethyl]urea], the “Selection ratio (KDR phosphorylation IC50 / c-fms phosphorylation IC50)” value is listed as 1 (when the value was 5 or more) and the IC50 is 155 nM.

As for `COc1cc2nccc(Oc3ccc(NC(=O)NC(C)c4ccc(F)cc4)c(C)c3)c2cc1OC` (stereo not shown) [Example 13, N-{4-[(6,7-Dimethoxy-4-quinolyl)oxy]-2-methylphenyl}-N′-[1-(4-fluorophenyl)ethyl]urea], the “Selection ratio (KDR phosphorylation IC50 / c-fms phosphorylation IC50)” value is 0 (KDR phosphorylation 50% inhibitory concentration [μM]/c-fms phosphorylation 50% inhibitory concentration [μM] was less than 5) and the IC50 is less than 1 nM.

Regarding `COc1ccc([C@H](C)NC(=O)Nc2ccc(Oc3ccnc4cc(OC)c(OC)cc34)cc2)cc1` [Example 53, N-{4-[(6,7-Dimethoxy-4-quinolyl)oxy]phenyl}-N′-[(1S)-1-(4-methoxyphenyl)ethyl]urea], the “Selection ratio (KDR phosphorylation IC50 / c-fms phosphorylation IC50)” value is given as 2 (when the value was 10 or more) and the IC50 turned out to be 37.4 nM.

Regarding `COc1cc2nccc(Oc3ccc(NC(=O)NC(C)c4ccc(F)cc4)cc3)c2cc1OC` (stereo not shown) [Example 1, N-{4-[(6,7-Dimethoxy-4-quinolyl)oxy]phenyl}-N′-[1-(4-fluorophenyl)ethyl]urea], the “Selection ratio (KDR phosphorylation IC50 / c-fms phosphorylation IC50)” value was 0 (KDR phosphorylation 50% inhibitory concentration [μM]/c-fms phosphorylation 50% inhibitory concentration [μM] was less than 5) and the IC50 was 1.1 nM.

With `COc1cc2nccc(Oc3ccc(NC(=O)NC(C)c4nccs4)cc3F)c2cc1OC` (stereo not shown) [Example 73, N-{4-[(6,7-Dimethoxy-4-quinolyl)oxy]-3-fluorophenyl}-N′-[1-(1,3-thiazol-2-yl)ethyl]urea], the “Selection ratio (KDR phosphorylation IC50 / c-fms phosphorylation IC50)” value is 2 (when the value was 10 or more) and the IC50 stood at 43.3 nM.

Consider `COc1cc(Oc2ccnc3cc(OC)c(OC)cc23)ccc1NC(=O)N[C@H](C)c1cccc(Br)c1` [Example 59, N-[(1R)-1-(3-Bromophenyl)ethyl]-N′-{4-[(6,7-dimethoxy-4-quinolyl)oxy]-2-methoxyphenyl}urea], for which the “Selection ratio (KDR phosphorylation IC50 / c-fms phosphorylation IC50)” value is 0 (KDR phosphorylation 50% inhibitory concentration [μM]/c-fms phosphorylation 50% inhibitory concentration [μM] was less than 5) and the IC50 was determined as 8.7 nM.

`COc1cc2nccc(Oc3ccc(NC(=O)N[C@@H](C)c4ccc(F)cc4)c(C)c3)c2cc1OC` [Example 14, N-{4-[(6,7-Dimethoxy-4-quinolyl)oxy]-2-methylphenyl}-N′-[(1S)-1-(4-fluorophenyl)ethyl]urea]: the “Selection ratio (KDR phosphorylation IC50 / c-fms phosphorylation IC50)” value is reported as 1 (when the value was 5 or more) and the IC50 amounted to 68.8 nM.
